Data: paper PMC11390765 (Cancer Chemotherapy and Pharmacology, 2024)
Marks after values point to notes of the source that are not given here.

Tests used:
[1] = Plasma pharmacokinetics of capivasertib and its glucuronide metabolite; type: in vivo, human; conditions: for Ctrough cycle 1, day 13: 12 h post day 12 capivasertib evening dose; for Ctrough cycle 1, day 9: after 3 off-capivasertib-dosing days; for tmax: median (range)
advanced solid tumors = assay: Exploratory efficacy (RECIST 1.1, investigator assessment); type: in vivo, human; conditions: capivasertib 400 mg BID 4 days on/3 days off
Protocol: Efficacy was evaluated as an exploratory endpoint by investigator assessment, and per Response Evaluation Criteria in Solid Tumors (RECIST) version 1.1. Tumor assessments were performed by CT and/or MRI scans at screening and then every 8 weeks (± 7 days; earlier if clinically indicated) for 2 years, and then every 12 weeks until disease progression. Radiographic bone scans were performed at screening and repeated as clinically indicated, depending on tumor type.
Safety analyses were performed on the full analysis set, which consisted of all patients who received at least one dose of midazolam and/or capivasertib, irrespective of protocol adherence or continued participation in the study. Efficacy analyses were also performed on the full analysis set. Summary and/or descriptive statistics were used to analyze baseline demographic, safety, and efficacy data; PFS and DoR were estimated using Kaplan–Meier methodology.

[2] = geometric mean (gCV%), listed as Capivasertib

For `NC1(C(=O)N[C@@H](CCO)c2ccc(Cl)cc2)CCN(c2nc[nH]c3nccc2-3)CC1` [capivasertib], the AUCτ ([1]; geometric mean (gCV%), 12-h dosing interval, day 12 of cycle 1, capivasertib 400 mg BID) was 8499 ng·h/mL, the “Ctrough cycle 1, day 13” value ([1]; geometric mean (gCV%)) was 281.5 ng/mL and the “Ctrough cycle 1, day 13” value [1, 2] was 281.5^f (53.3) ng/mL. For the same compound, the “Ctrough cycle 1, day 9” value ([1]; geometric mean (gCV%)) was 10.96 ng/mL, the “Ctrough cycle 1, day 9” value [1, 2] was 10.96^e (137.0) ng/mL and the Cmax ([1]; geometric mean (gCV%), day 12 of cycle 1, 4th day on capivasertib 400 mg BID, with single oral midazolam 1 mg) was 1779 ng/mL. For the same compound, the t½λz ([1]; geometric mean (gCV%), day 12 of cycle 1, capivasertib 400 mg BID) was 3.76 h, the CL/F ([1]; geometric mean (gCV%), day 12 of cycle 1, capivasertib 400 mg BID oral) was 46.4 L/h and the tmax ([1]; day 12 of cycle 1, capivasertib 400 mg BID) was 1.5 h. For the same compound, the tmax ([1]; day 12 of cycle 1, capivasertib 400 mg BID, listed as Capivasertib) was 1.48^a (0.6–5.5) h, the “Median DoR (95% CI)” value (advanced solid tumors) was 3.8 months and the “patients with confirmed partial response to treatment” value (advanced solid tumors) was “Two”. For the same compound, the “CBR (95% CI) at 24 weeks” value (advanced solid tumors; full analysis set) was 14.3%, the “ORR (95% CI)” value (advanced solid tumors; full analysis set) was 9.5% and the “median PFS (95% CI)” value (advanced solid tumors; full analysis set, 15 PFS events) was 3.4 months.
